Measured values published in ChEMBL document CHEMBL3046888, “Antiviral and Antifungal Activities of Some Naphthoquinones Isolated from the Roots of Lithospermum erythrorhizon” (J Pestic Sci, 1998).
The source made the active and inactive calls. The calls are words filed in the database; no cut-off is given here.

Tests used:
Tobacco mosaic virus [1] = experiment: Antiviral activity against Tobacco mosaic virus (TMV) in compound treated tobacco leaf assessed as growth inhibition at 5 mM at 25 degC for 3 days (16 hr in light) by half-leaf method; assay type: functional
Tobacco mosaic virus [2] = experiment: Antiviral activity against Tobacco mosaic virus (TMV) in compound treated tobacco leaf assessed as growth inhibition at 25 mM at 25 degC for 3 days (16 hr in light) by half-leaf method; assay type: functional; parameters: dose or concentration left out as unconfirmed
Nicotiana tabacum = experiment: Phytotoxicity against Nicotiana tabacum (tobacco) plant at 25 mM; assay type: organism-based; conditions: in vivo, 25000 µM
Cladosporium herbarum [3] = experiment: Antifungal activity against Cladosporium herbarum assessed as inhibition at 250 nmol in 8 mm disk; assay type: functional
Cladosporium herbarum [4] = experiment: Antifungal activity against Cladosporium herbarum assessed as inhibition at 10 nmol in 8 mm disk; assay type: functional
Cladosporium herbarum [5] = experiment: Antifungal activity against Cladosporium herbarum assessed as inhibition at 1250 nmol in 8 mm disk; assay type: functional
Cladosporium herbarum [6] = experiment: Antifungal activity against Cladosporium herbarum assessed as inhibition at 50 nmol in 8 mm disk; assay type: functional

Row | Structure (SMILES) | inhibition at 5000 µM (Tobacco mosaic virus [1]) [%] | inhibition (Tobacco mosaic virus [2]) [%] | inhibition (Tobacco mosaic virus [1]) | Activity (Nicotiana tabacum) | diameter of the inhibition zone (DIZ) (Cladosporium herbarum [3]) [mm] | diameter of the inhibition zone (DIZ) (Cladosporium herbarum [4]) [mm] | diameter of the inhibition zone (DIZ) (Cladosporium herbarum [5]) [mm] | diameter of the inhibition zone (DIZ) (Cladosporium herbarum [6]) [mm]
1 | CC(C)=CCCC1=CC(=O)c2c(O)ccc(O)c2C1=O [DEOXYSHIKONIN] | 66.4 | 87.3 |  |  |  |  |  | 
2 | CC(C)=CC[C@@H](OC(=O)C=C(C)C)C1=CC(=O)c2c(O)ccc(O)c2C1=O [DIMETHYLACRYLSHIKONIN] | 26 | 70.2 |  |  |  |  |  | 
3 | CCC(C)C(=O)O[C@H](CC=C(C)C)C1=CC(=O)c2c(O)ccc(O)c2C1=O (some centres undefined) |  | 86.1 | inactive |  |  |  |  | 
4 | CC(C)=CC[C@@H](OC(=O)CC(C)(C)O)C1=CC(=O)c2c(O)ccc(O)c2C1=O [BETA-HYDROXYISOVALERYLSHIKONIN] | 44 |  |  | Toxic | 16 | 9.1 | 17.6 | 13.8
5 | CC(C)=CC[C@@H](OC(=O)CC(C)C)C1=CC(=O)c2c(O)ccc(O)c2C1=O | 46 | 86.1 |  |  |  |  |  | 
6 | CCC(=O)O[C@H](CC=C(C)C)C1=CC(=O)c2c(O)ccc(O)c2C1=O | 86.1 | 99.9 |  |  | 15.6 | 9.1 | 15.1 | 11.3
7 | CC(C)=CC[C@@H](OC(=O)C(C)C)C1=CC(=O)c2c(O)ccc(O)c2C1=O [ISOBUTYLSHIKONIN] | 49.5 | 75.5 |  |  |  |  |  | 
8 | CC(C)=CC[C@@H](O)C1=CC(=O)c2c(O)ccc(O)c2C1=O [SHIKONIN] |  |  | inactive | Toxic | 14.1 | 9.9 | 15.9 | 13.4
9 | CC(=O)O[C@H](CC=C(C)C)C1=CC(=O)c2c(O)ccc(O)c2C1=O [ACETYLSHIKONIN] | 73.2 | 78.7 |  |  | 13.3 | 10.1 | 13.4 | 13
